Each molecule was assayed against T1, Complement C1s subcomponent (Homo sapiens, UniProt P09871) (assay: C1s inhibitor IC50 values, dose response, biochemical (AID 787)).
T1 sequence (P09871 whole entry): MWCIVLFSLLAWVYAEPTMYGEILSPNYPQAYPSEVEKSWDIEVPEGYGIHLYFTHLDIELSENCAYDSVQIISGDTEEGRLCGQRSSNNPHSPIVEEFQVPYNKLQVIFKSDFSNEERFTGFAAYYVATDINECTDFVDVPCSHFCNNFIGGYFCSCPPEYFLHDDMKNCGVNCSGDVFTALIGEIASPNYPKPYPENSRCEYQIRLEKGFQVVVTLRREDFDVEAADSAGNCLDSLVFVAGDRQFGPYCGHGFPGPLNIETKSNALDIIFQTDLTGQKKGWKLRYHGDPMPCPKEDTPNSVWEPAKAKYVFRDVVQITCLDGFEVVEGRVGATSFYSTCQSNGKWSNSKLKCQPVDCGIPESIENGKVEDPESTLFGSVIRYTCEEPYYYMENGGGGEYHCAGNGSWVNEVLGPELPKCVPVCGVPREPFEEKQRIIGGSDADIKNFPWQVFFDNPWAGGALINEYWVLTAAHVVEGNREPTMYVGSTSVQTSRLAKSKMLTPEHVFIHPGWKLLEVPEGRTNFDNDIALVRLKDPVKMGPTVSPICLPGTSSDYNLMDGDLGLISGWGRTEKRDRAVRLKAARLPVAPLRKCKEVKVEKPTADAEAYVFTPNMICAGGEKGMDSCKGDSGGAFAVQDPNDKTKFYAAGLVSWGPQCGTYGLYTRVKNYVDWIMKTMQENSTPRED

IC50	SMILES
> 50 µM	Oc1cccc(C(=S)N2CCN(Cc3ccccc3)CC2)c1 [(3-hydroxyphenyl)-[4-(phenylmethyl)-1-piperazinyl]methanethione]
> 50 µM	CCCS(=O)(=O)N1CCC(C(=O)N2CCN(Cc3ccccc3)CC2)CC1 [(4-benzylpiperazin-1-yl)-(1-propylsulfonylpiperidin-4-yl)methanone]
> 50 µM	CCN1CCN(C=Nc2nc3c(s2)CCCC3)CC1 [(4-ethylpiperazino)methylene-(4,5,6,7-tetrahydro-1,3-benzothiazol-2-yl)amine]
> 50 µM	COc1ccc(C(=O)OCn2nnc3ccccc3c2=O)cc1OC [(4-oxidanylidene-1,2,3-benzotriazin-3-yl)methyl 3,4-dimethoxybenzoate]
> 50 µM	Cc1cccc(COc2ccc(C(=O)C3C(=O)C(=O)N(CCN(C)C)C3c3ccncc3)cc2)c1 (stereo not drawn) [(4E)-1-[2-(dimethylamino)ethyl]-4-[[4-[(3-methylphenyl)methoxy]phenyl]-oxidanyl-methylidene]-5-pyridin-4-yl-pyrrolidine-2,3-dione]
12.1 µM	Nc1nc(C(=O)N2CCOCC2)nn1C(=O)c1ccc(Cl)cc1 [(5-azanyl-3-morpholin-4-ylcarbonyl-1,2,4-triazol-1-yl)-(4-chlorophenyl)methanone]
> 50 µM	CCOC(=O)N1CCC2=C(C#N)C(=N)C(C#N)(C#N)[C@H](c3ccccc3OCC)[C@H]2C1 [(8R,8aR)-6-amino-5,7,7-tricyano-8-(2-ethoxyphenyl)-1,3,8,8a-tetrahydroisoquinoline-2-carboxylic acid ethyl ester]
> 50 µM	CNC=C1C(=O)C(C)(C)Oc2ccc3ccc(=O)oc3c21 [(10Z)-8,8-dimethyl-10-(methylaminomethylene)pyrano[2,3-f]chromene-2,9-quinone]
17.1 µM	COC(=O)c1ccc(OC(=O)c2ccco2)cc1 [Furan-2-carboxylic acid 4-methoxycarbonyl-phenyl ester]
> 50 µM	CCC(=O)Oc1ccc(C(CC)C(CC)c2ccc(OC(=O)CC)cc2)cc1 (stereo not drawn) [HEXESTROL DIPROPIONATE]
> 50 µM	O=C1CS/C(=N\c2ccc(O)cc2)N1c1ccc(O)cc1 [MLS000027731]
> 50 µM	COc1cc(NC(=O)c2cccs2)c(OC)cc1NC(=O)CCn1nnc2ccccc21 [MLS000027885]
11.3 µM	COc1ccc(S(=O)(=O)n2nc(OC(=O)c3ccco3)cc2N)cc1 [MLS000033887]
> 50 µM	O=c1cc(-c2ccccc2)[nH]c2nc(-c3ccccc3)nn12 [MLS000037061]
> 50 µM	O=C(NC1CCS(=O)(=O)C1)c1cccc(S(=O)(=O)N2CCCCC2)c1 (stereo not drawn) [MLS000049608]
> 50 µM	COc1ccc(NC(=O)C2CCC(=O)N2S(=O)(=O)c2ccc(C)cc2)c(OC)c1 (stereo not drawn) [MLS000050140]
> 50 µM	Cc1csc(NC(=O)c2cccc(S(=O)(=O)N3CCCCC3)c2)n1 [MLS000058185]
> 50 µM	COc1ccc(NC(=O)c2cccs2)cc1OC [MLS000058874]
> 50 µM	O=C(Nc1ccc(Cl)cc1)c1ccc2c(c1)OCO2 [MLS000062068]
> 50 µM	O=C(NC1CCCC1)c1cccc(S(=O)(=O)N2CCCCC2)c1 [MLS000065413]
> 50 µM	O=C(NCc1ccco1)c1cccc(S(=O)(=O)N2CCCCC2)c1 [MLS000065416]
14.9 µM	O=C(c1csc2ccccc12)n1cccn1 [MLS000065687]
> 50 µM	Cc1ccc(NS(=O)(=O)c2cc(C(=O)N3CCOCC3)ccc2C)cc1C [MLS000066131]
> 50 µM	CCCCC(=O)Nc1ccc(NC(=O)c2cccnc2)cn1 [MLS000068397]
> 50 µM	O=C(c1ccco1)N1CCN(S(=O)(=O)c2ccc(S(=O)(=O)NC3CCCCC3)cc2)CC1 [MLS000068710]
> 50 µM	O=C(N1CCOCC1)C12CCC3CC(CC(C3)C1)C2 [MLS000071057]
> 50 µM	O=C(Nc1ccc2oc(=O)ccc2c1)c1cccnc1 [MLS000075075]

SMILES	IC50
CC1CNC(=Nc2cccc3ccccc23)S1 (stereo not drawn) [(5-methyl-2-thiazolin-2-yl)-(1-naphthyl)amine]	> 50 µM

From BindingDB's records for doi:10.7270/Q2MP51PC (Pcmd, 2008)
